The subject of experiment [1] is U-2 OS. In words: AUC of culture confluence over time (live-cell imaging) (AUC (confluence % x time)); higher = more confluent culture (less growth inhibition). As to the method: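 Live-cell Incucyte imaging of U-2 OS cells in F-12K medium. Compounds were tested mostly at 5, 10 and 20 uM, and cells were imaged every 4 h for up to 60 h. Value is the area under the curve of phase-contrast confluence over time.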

For experiment [2], the system named is U-2 OS. Description: relative cell count vs DMSO (cell painting) (fraction of DMSO control); higher = more cells remaining (less cytotoxic). The conditions noted are these: 24 h. Here is the method: (§1)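 Cell painting in U-2 OS cells (384-well, about 1,500 cells per well), compound exposure 24 h, usually six 2-fold concentrations from 20 to 0.625 uM (some compounds higher or lower). Relative cell count is the cell number per well relative to DMSO wells. Activity score is the Mahalanobis distance of the morphological profile from DMSO control wells. Mean of four technical replicate plates.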

For experiment [3], the system named is U-2 OS. In words: cell painting activity score (Mahalanobis distance from DMSO wells); higher = stronger morphological phenotype. The conditions noted are these: 24 h. Here is the method: as §1

For the compound `NC(=O)c1ccc(I)c([N+](=O)[O-])c1`, the “AUC of culture confluence over time” value in the experiment on U-2 OS [1] (5 µM) came out at 56.5; in the experiment on U-2 OS [1] (10 µM) it was 53.5; in the experiment on U-2 OS [1] (20 µM), 50.1. The relative cell count in the experiment with U-2 OS [2] (0.625 µM) is 1.01; in the experiment with U-2 OS [2] (1.25 µM) it was 1.07; in the experiment on U-2 OS [2] (2.5 µM) it was 1.05; with U-2 OS [2] (5 µM) it was 1.04; with U-2 OS [2] (10 µM), 1.06; in the experiment with U-2 OS [2] (20 µM) it was 1.07. The “cell painting activity score” value in the experiment on U-2 OS [3] (0.625 µM) was 3.13; in the experiment with U-2 OS [3] (1.25 µM), 3.07; in the experiment on U-2 OS [3] (2.5 µM), 2.86; in the experiment with U-2 OS [3] (5 µM) it was 3.68; in the experiment on U-2 OS [3] (10 µM), 3.09; with U-2 OS [3] (20 µM), 3.55.
In the case of `CS(=O)(=O)OCCCCOS(C)(=O)=O`, the results for the “AUC of culture confluence over time” value in the experiment with U-2 OS [1] (5 µM), in the experiment on U-2 OS [1] (10 µM) and in the experiment on U-2 OS [1] (20 µM) were 49.5, 47.2 and 49.5, respectively. For the same compound, the relative cell count came out at 0.959 with U-2 OS [2] (0.625 µM); 0.863 in the experiment with U-2 OS [2] (1.25 µM); 0.85 in the experiment on U-2 OS [2] (2.5 µM); 0.682 in the experiment with U-2 OS [2] (5 µM); 0.679 in the experiment with U-2 OS [2] (10 µM); 0.295 in the experiment on U-2 OS [2] (20 µM). In addition, the “cell painting activity score” value was 3.32 in the experiment with U-2 OS [3] (0.625 µM); 4.51 with U-2 OS [3] (1.25 µM); 5.59 with U-2 OS [3] (2.5 µM); 7.16 in the experiment on U-2 OS [3] (5 µM); 6.02 in the experiment with U-2 OS [3] (10 µM); 10 with U-2 OS [3] (20 µM).
With `O=NN(CCCl)C(=O)NC1CCCCC1`, the “AUC of culture confluence over time” value in the experiment on U-2 OS [1] (5 µM) stood at 46.1; with U-2 OS [1] (10 µM), 48.4; in the experiment with U-2 OS [1] (20 µM), 47.4. The relative cell count in the experiment on U-2 OS [2] (0.625 µM) worked out at 0.975; in the experiment on U-2 OS [2] (1.25 µM), 0.937; with U-2 OS [2] (2.5 µM) it was 0.985; with U-2 OS [2] (5 µM), 0.988; in the experiment on U-2 OS [2] (10 µM) it was 0.963; with U-2 OS [2] (20 µM) it was 0.875. The “cell painting activity score” value is 3.56 with U-2 OS [3] (0.625 µM); 4.22 in the experiment with U-2 OS [3] (1.25 µM); 4.72 in the experiment on U-2 OS [3] (2.5 µM); 4.42 in the experiment with U-2 OS [3] (5 µM); 4.76 in the experiment with U-2 OS [3] (10 µM); 7.36 in the experiment on U-2 OS [3] (20 µM).
For `CCN(CC)CCNC(=O)c1c(C)[nH]c(/C=C2\C(=O)Nc3ccc(F)cc32)c1C`, the relative cell count was determined as 0.983 in the experiment on U-2 OS [2] (0.625 µM); 0.945 with U-2 OS [2] (1.25 µM); 0.983 in the experiment with U-2 OS [2] (2.5 µM); 0.917 in the experiment with U-2 OS [2] (5 µM); 0.831 with U-2 OS [2] (10 µM); 0.503 in the experiment on U-2 OS [2] (20 µM). For the same compound, the “cell painting activity score” value in the experiment with U-2 OS [3] (0.625 µM) is 11.2; in the experiment on U-2 OS [3] (1.25 µM) it was 11.5; with U-2 OS [3] (2.5 µM) it was 11.3; in the experiment on U-2 OS [3] (5 µM), 12.4; with U-2 OS [3] (10 µM), 14.5; in the experiment with U-2 OS [3] (20 µM) it was 25.1.
`C[C@@H]1Cc2c(Cl)cc(C(=O)N[C@@H](Cc3ccccc3)C(=O)O)c(O)c2C(=O)O1`: the entries for the “AUC of culture confluence over time” value with U-2 OS [1] (5 µM), with U-2 OS [1] (10 µM) and with U-2 OS [1] (20 µM) were 40.8, 30.3 and 17.7, respectively. Moreover, the relative cell count with U-2 OS [2] (0.625 µM) is 1; in the experiment on U-2 OS [2] (1.25 µM), 0.998; with U-2 OS [2] (2.5 µM), 0.979; with U-2 OS [2] (5 µM), 0.954; with U-2 OS [2] (10 µM), 0.805; in the experiment with U-2 OS [2] (20 µM), 0.503. Moreover, the “cell painting activity score” value with U-2 OS [3] (0.625 µM) came to 3.03; in the experiment with U-2 OS [3] (1.25 µM), 4; with U-2 OS [3] (2.5 µM), 4.76; in the experiment with U-2 OS [3] (5 µM), 5.78; in the experiment with U-2 OS [3] (10 µM), 10.6; in the experiment on U-2 OS [3] (20 µM) it was 16.6.
As to `COc1ccc2cc1Oc1ccc(cc1)C[C@H]1c3cc(c(OC)cc3CCN1C)Oc1c(OC)c(OC)cc3c1[C@H](C2)N(C)CC3`, the relative cell count in the experiment with U-2 OS [2] (0.625 µM) stood at 1.08; in the experiment with U-2 OS [2] (1.25 µM), 1.06; in the experiment on U-2 OS [2] (2.5 µM), 1.04; with U-2 OS [2] (5 µM), 1.07; in the experiment on U-2 OS [2] (10 µM), 0.973; with U-2 OS [2] (20 µM), 0.322. Further, the “cell painting activity score” value with U-2 OS [3] (0.625 µM) came to 5.28; in the experiment on U-2 OS [3] (1.25 µM) it was 5.79; with U-2 OS [3] (2.5 µM) it was 5.97; with U-2 OS [3] (5 µM), 16.8; in the experiment with U-2 OS [3] (10 µM), 28.3; in the experiment with U-2 OS [3] (20 µM) it was 14.8.
For `CCCCCCCCCCCCCCCCCCOP(=O)([O-])OC1CC[N+](C)(C)CC1`, the relative cell count was 1.02 in the experiment with U-2 OS [2] (0.625 µM); 1.03 in the experiment on U-2 OS [2] (1.25 µM); 1.11 with U-2 OS [2] (2.5 µM); 1.05 in the experiment with U-2 OS [2] (5 µM); 1.05 in the experiment with U-2 OS [2] (10 µM); 1.02 in the experiment with U-2 OS [2] (20 µM). Besides, the “cell painting activity score” value in the experiment with U-2 OS [3] (0.625 µM) was determined as 3.72; in the experiment on U-2 OS [3] (1.25 µM) it was 3.21; in the experiment with U-2 OS [3] (2.5 µM), 3.03; with U-2 OS [3] (5 µM), 3.98; with U-2 OS [3] (10 µM), 3.76; with U-2 OS [3] (20 µM), 4.51.
For the compound `Cc1ccc(S(=O)(=O)/C=C/C#N)cc1`, the relative cell count in the experiment with U-2 OS [2] (0.625 µM) was found to be 0.923; in the experiment on U-2 OS [2] (1.25 µM), 0.942; in the experiment with U-2 OS [2] (2.5 µM) it was 0.678; in the experiment with U-2 OS [2] (5 µM), 0.485; in the experiment on U-2 OS [2] (10 µM), 0.231; with U-2 OS [2] (20 µM), 0.286. For the same compound, the “cell painting activity score” value came to 10.4 in the experiment with U-2 OS [3] (0.625 µM); 12.9 in the experiment with U-2 OS [3] (1.25 µM); 16.7 with U-2 OS [3] (2.5 µM); 18.3 in the experiment with U-2 OS [3] (5 µM); 21 in the experiment with U-2 OS [3] (10 µM); 23.7 in the experiment on U-2 OS [3] (20 µM).
On to `Oc1ccc(/C=C/c2cc(O)cc(O)c2)cc1`, for which the figures for the “AUC of culture confluence over time” value with U-2 OS [1] (5 µM), in the experiment on U-2 OS [1] (10 µM) and in the experiment with U-2 OS [1] (20 µM) were 49, 46.4 and 42.5, respectively.
In the case of `CC(C)(C)c1cc(O)ccc1O`, the relative cell count is 0.908 in the experiment with U-2 OS [2] (0.625 µM); 0.958 in the experiment with U-2 OS [2] (1.25 µM); 0.948 with U-2 OS [2] (2.5 µM); 0.913 with U-2 OS [2] (5 µM); 0.945 in the experiment on U-2 OS [2] (10 µM); 0.949 with U-2 OS [2] (20 µM). The “cell painting activity score” value worked out at 4.14 in the experiment with U-2 OS [3] (0.625 µM); 4.2 in the experiment with U-2 OS [3] (1.25 µM); 5.45 in the experiment on U-2 OS [3] (2.5 µM); 5.28 in the experiment on U-2 OS [3] (5 µM); 4.94 in the experiment on U-2 OS [3] (10 µM); 7.97 in the experiment with U-2 OS [3] (20 µM).
`Oc1ccc(/C=C\c2cc(O)cc(O)c2)cc1`: the “AUC of culture confluence over time” value in the experiment with U-2 OS [1] (5 µM) worked out at 42.1; with U-2 OS [1] (10 µM), 46.9; with U-2 OS [1] (20 µM), 39.8.
As to `O=C1C=C(Cl)C(=O)c2ccccc21`, the relative cell count in the experiment on U-2 OS [2] (0.625 µM) is 0.745; in the experiment with U-2 OS [2] (1.25 µM) it was 0.492; in the experiment on U-2 OS [2] (2.5 µM) it was 0.216; in the experiment with U-2 OS [2] (5 µM), 0.29; in the experiment on U-2 OS [2] (10 µM), 0.169; with U-2 OS [2] (20 µM), 0.267. Besides, the “cell painting activity score” value in the experiment on U-2 OS [3] (0.625 µM) worked out at 7.9; in the experiment on U-2 OS [3] (1.25 µM), 18.1; in the experiment with U-2 OS [3] (2.5 µM), 19.4; in the experiment on U-2 OS [3] (5 µM) it was 17.9; in the experiment with U-2 OS [3] (10 µM), 22.2; in the experiment with U-2 OS [3] (20 µM), 25.4.
As for `CCN(CC)CCCC(C)Nc1ccnc2cc(Cl)ccc12` (stereo not given), the relative cell count in the experiment on U-2 OS [2] (0.625 µM) was found to be 1.2; in the experiment on U-2 OS [2] (1.25 µM) it was 1.12; in the experiment with U-2 OS [2] (2.5 µM) it was 1.09; with U-2 OS [2] (5 µM), 1.19; in the experiment with U-2 OS [2] (10 µM), 1.08; with U-2 OS [2] (20 µM), 1.09. The “cell painting activity score” value with U-2 OS [3] (0.625 µM) came to 4.84; in the experiment with U-2 OS [3] (1.25 µM) it was 5.94; in the experiment with U-2 OS [3] (2.5 µM), 4.8; with U-2 OS [3] (5 µM), 4.43; with U-2 OS [3] (10 µM), 4.73; in the experiment on U-2 OS [3] (20 µM) it was 6.72.

The record behind these values is the supplement of paper PMC10011410.
